In patent US4914245A, “Culpin” (E. R. Squibb & Sons, Inc., priority 1989, dated 1990):
Converted amounts (≈) assume the structure as drawn.

Columns and labels:
Format in all cases: cell-based
[1] = tested on: Streptococcus agalactiae; assay: agar dilution assay (MIC) vs Streptococcus agalactiae SC 9287; details: Streptococcus agalactiae S.C. No. 9287; K-10 agar; 10^4 CFU; 37° C., 18 hours
Experimental: (§1) The following methodology was used to determine the minimum inhibitory concentration (hereinafter referred to as MIC) of the compounds of this invention against bacteria. The test organisms were grown in 20 ml of Antibiotic Assay Broth (Difco) by inoculating the broth (in tubes) with a loopful of the organism from a BHI (Difco) agar slant. The inoculated tubes were incubated at 37° C. for 18 to 24 hours. These cultures were assumed to contain 10^9 colony forming units (CFU) per ml. The cultures were diluted 1:100 to give a final inoculum level of 10^7 CFU; dilutions were made with Yeast Beef Broth (Difco). The test compounds were dissolved in an appropriate diluent at a concentration of 1,000 μg/ml. Two-fold dilutions were made in Yeast Beef Broth (Difco), resulting in a range from 1000 μg/ml to 0.5 μg/ml. A 1.5 ml portion of each dilution was placed into individual petri dishes to which 13.5 ml of K-10 agar was added. The composition of K-10 agar is The final drug concentration in the agar ranged from 100 μg/ml to 0.05 μg/ml. Organism growth control plates containing agar only were prepared and inoculated before and after the test plates. […] The plates were incubated at 37° C. for 18 hours and the MICs determined. […]

[2] = tested on: Candida tropicalis; assay: agar dilution assay (MIC) vs Candida tropicalis SC 9861; details: Candida tropicalis S.C. No. 9861; F-4 agar; 10^3 CFU
Experimental: (§2) The following methodology was used to determine the minimum inhibitory concentration (hereinafter referred to as MIC) of the compounds of this invention against bacteria. The test organisms were grown in 20 ml of Antibiotic Assay Broth (Difco) by inoculating the broth (in tubes) with a loopful of the organism from a BHI (Difco) agar slant. The inoculated tubes were incubated at 37° C. for 18 to 24 hours. These cultures were assumed to contain 10^9 colony forming units (CFU) per ml. The cultures were diluted 1:100 to give a final inoculum level of 10^7 CFU; dilutions were made with Yeast Beef Broth (Difco). The test compounds were dissolved in an appropriate diluent at a concentration of 1,000 μg/ml. Two-fold dilutions were made in Yeast Beef Broth (Difco), resulting in a range from 1000 μg/ml to 0.5 μg/ml. A 1.5 ml portion of each dilution was placed into individual petri dishes to which 13.5 ml of K-10 agar was added. The composition of K-10 agar is
(§3) The final drug concentration in the agar ranged from 100 μg/ml to 0.05 μg/ml. Organism growth control plates containing agar only were prepared and inoculated before and after the test plates. […]
(§4) The plates were incubated at 37° C. for 18 hours and the MICs determined. […]

[3] = tested on: Candida tropicalis; assay: agar dilution assay (MIC) vs Candida tropicalis SC 2963; details: Candida tropicalis S.C. No. 2963; F-4 agar; 10^3 CFU
Experimental: as §2, §3, §4

[4] = tested on: Escherichia coli; assay: agar dilution assay (MIC) vs Escherichia coli SC 10909; details: Escherichia coli S.C. No. 10909; K-10 agar; 10^4 CFU; 37° C., 18 hours
Experimental: as §1

[5] = tested on: Micrococcus luteus; assay: agar dilution assay (MIC) vs Micrococcus luteus SC 2495; details: Micrococcus luteus S.C. No. 2495; K-10 agar; 10^4 CFU; 37° C., 18 hours
Experimental: as §1

[6] = tested on: Mycobacterium fortuitum; assay: agar dilution assay (MIC) vs Mycobacterium fortuitum SC 8571; details: Mycolicibacterium fortuitum; Mycobacterium fortuitum S.C. No. 8571; K-10 agar; 10^4 CFU; 37° C., 18 hours
Experimental: as §1

MIC [1]: 50 µg/mL (≈ 206 µM)
MIC [2]: 50 µg/mL (≈ 206 µM)
MIC [3]: 50 µg/mL (≈ 206 µM)
MIC [4]: 100 µg/mL (≈ 413 µM)
MIC [5]: 100 µg/mL (≈ 413 µM)
MIC [6]: 50 µg/mL (≈ 206 µM)
SMILES: C=C(C)C#Cc1cc(O)c(CC=C(C)C)cc1O [culpin, 2-(3-methyl-2-butenyl)-5-(3-methyl-3-buten-1-ynyl)-1,4-benzenediol]
